Assay results: ChEMBL document CHEMBL1135600, “Novel tricyclic-alpha-alkyloxyphenylpropionic acids: dual PPARalpha/gamma agonists with hypolipidemic and antidiabetic activity” (J Med Chem, 2002)
pEC50: −log10 of the molar value. Values joined by “and” are separate entries in the source; they are usually repeats but may differ in a detail not shown here. Equal entries are not always repeated.

Tests used:
[1] = target: T1, Peroxisome proliferator-activated receptor alpha (Homo sapiens, UniProt Q07869); assay: In vitro transactivation using receptor transactivation assay against hPPAR alpha; assay type: functional
T1 sequence (Q07869 whole entry): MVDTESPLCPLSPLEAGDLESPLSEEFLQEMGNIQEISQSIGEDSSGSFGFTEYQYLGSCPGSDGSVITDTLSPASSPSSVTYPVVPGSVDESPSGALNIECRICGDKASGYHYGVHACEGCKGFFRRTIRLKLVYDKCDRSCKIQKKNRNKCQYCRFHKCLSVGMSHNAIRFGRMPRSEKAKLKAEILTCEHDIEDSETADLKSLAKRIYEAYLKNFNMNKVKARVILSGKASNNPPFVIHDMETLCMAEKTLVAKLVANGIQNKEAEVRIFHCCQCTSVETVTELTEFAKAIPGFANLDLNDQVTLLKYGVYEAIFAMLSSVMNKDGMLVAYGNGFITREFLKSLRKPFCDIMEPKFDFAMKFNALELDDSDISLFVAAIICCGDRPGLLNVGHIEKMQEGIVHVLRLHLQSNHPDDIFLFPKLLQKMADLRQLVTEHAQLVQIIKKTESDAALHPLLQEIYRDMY

[2] = target: T2, Peroxisome proliferator-activated receptor gamma (Homo sapiens, UniProt P37231)
T2 sequence (P37231 whole entry): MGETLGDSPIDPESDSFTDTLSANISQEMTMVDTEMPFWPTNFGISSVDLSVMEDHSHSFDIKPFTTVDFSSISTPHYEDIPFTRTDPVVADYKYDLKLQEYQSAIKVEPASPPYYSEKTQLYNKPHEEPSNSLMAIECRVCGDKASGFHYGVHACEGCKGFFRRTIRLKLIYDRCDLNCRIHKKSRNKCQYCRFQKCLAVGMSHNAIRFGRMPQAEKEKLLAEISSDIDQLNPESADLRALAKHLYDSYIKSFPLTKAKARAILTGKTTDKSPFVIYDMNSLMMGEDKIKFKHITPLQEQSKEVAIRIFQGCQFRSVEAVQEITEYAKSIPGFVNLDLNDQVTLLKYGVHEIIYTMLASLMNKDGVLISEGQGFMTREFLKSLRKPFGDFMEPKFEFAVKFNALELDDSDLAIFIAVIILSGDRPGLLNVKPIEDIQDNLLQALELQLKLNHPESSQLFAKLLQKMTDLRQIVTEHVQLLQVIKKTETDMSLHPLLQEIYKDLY
Description: In vitro transactivation using receptor transactivation assay against hPPAR gamma

[3] = organism: Rattus norvegicus; assay: Effective dose which produces the desired nonfasting triglyceride levels in high cholesterol fed male Sprgue-Dawley rats.; assay type: functional
[4] = organism: Mus musculus; assay: Maximum achieved blood glucose reduction relative to vehicle treated control group; assay type: functional
[5] = organism: Mus musculus; assay: Effective dose which produces the desired nonfasting blood glucose levels after 7 days in 50% of the treated mice.; assay type: functional; details: 168 h
[6] = Clearance after oral administration; assay type: ADME, organism-based; details: in vivo
[7] = organism: Mus musculus; assay: Maximum achieved triglycerides reduction relative to vehicle treated control group; assay type: functional
[8] = Area under blood glucose time curve after OGTT on the 9th day of treatment; assay type: ADME, tissue-based
[9] = Maximum plasma concentration after oral administration at a dose 2.2 mg/kg; assay type: ADME, organism-based; set-up: dose 2.2 mg/kg, route oral
[10] = organism: Mus musculus; assay: Effective dose which produces the desired nonfasting insuline levels after 7 days in 50% of the treated male db/db mice.; assay type: functional; details: 168 h
[11] = organism: Rattus norvegicus; assay: (§1) Maximum achieved Nonfasted triglycerides reduction relative to vehicle treated control group; assay type: functional
[12] = organism: Rattus norvegicus; assay: (§2) Maximum achieved Total cholesterol reduction relative to vehicle treated control group; assay type: functional
[13] = in vivo
Description: Volume of distribution during steady state

[14] = Area under plasma concentration time curve after oral administration at a dose 2.2 mg/kg; assay type: ADME, organism-based; set-up: dose 2.2 mg/kg, route oral
[15] = organism: Mus musculus; assay: Effective dose which produces the desired nonfasting triglyceride levels after 7 days in 50% of the treated male db/db mice.; assay type: functional; details: 168 h
[16] = organism: Mus musculus; assay: Maximum achieved insulin reduction relative to vehicle treated control group; assay type: functional
[17] = Oral bioavailability; assay type: ADME, organism-based; details: eutheria, in vivo
[18] = organism: Rattus norvegicus; assay: Effective dose which produces the desired total cholesterol levels imale Sprgue-Dawley rats.; assay type: functional
[19] = Oral half life was reported; assay type: ADME, organism-based; details: in vivo
[20] = as §2; assay type: functional
[21] = test system: Mus musculus; assay: In vivo % reduction of blood glucose area under curve after oral glucose tolerance test in male db/db mice at 3 mg/kg peroral dose of compound once in a day; assay type: ADME, organism-based; set-up: dose 3 mg/kg, route oral
[22] = test system: Mus musculus; assay: In vivo blood glucose level in male db/db mice after administration of 0.33 mg/kg peroral dose of compound thrice a day; assay type: functional; details: route oral
[23] = test system: Mus musculus; assay: In vivo % reduction of blood glucose area under curve after oral glucose tolerance test in male db/db mice at 1 mg/kg peroral dose of compound thrice a day; assay type: ADME, organism-based; set-up: dose 1 mg/kg, route oral
[24] = organism: Mus musculus; assay: Nonfasting insulin after 7 days treatment in male db/db mice; assay type: functional; details: 168 h
[25] = organism: Mus musculus; assay: Nonfasting triglycerides after 7 days treatment in male db/db mice; assay type: functional; details: 168 h
[26] = test system: Mus musculus; assay: In vivo % reduction of blood glucose area under curve after oral glucose tolerance test in male db/db mice at 1 mg/kg peroral dose of compound once in a day; assay type: ADME, organism-based; set-up: dose 1 mg/kg, route oral
[27] = as §1; assay type: functional
[28] = test system: Mus musculus; assay: In vivo % reduction of blood glucose level in male db/db mice after administration of 1 mg/kg peroral dose of compound thrice a day; assay type: functional; details: route oral
[29] = test system: Mus musculus; assay: In vivo blood glucose area under curve after oral glucose tolerance test in male db/db mice at 0.33 mg/kg peroral dose of compound thrice a day; assay type: ADME, organism-based; set-up: dose 0.33 mg/kg, route oral
[30] = test system: Mus musculus; assay: In vivo % reduction of blood glucose level in male db/db mice after administration of 0.33 mg/kg peroral dose of compound thrice a day; assay type: functional; details: route oral
[31] = test system: Mus musculus; assay: In vivo blood glucose level in male db/db mice after administration of 1 mg/kg peroral dose of compound thrice a day; assay type: functional; details: route oral
[32] = test system: Mus musculus; assay: In vivo blood glucose level in male db/db mice after administration of 1 mg/kg peroral dose of compound once in a day; assay type: functional; details: route oral
[33] = test system: Mus musculus; assay: In vivo blood glucose level in male db/db mice after administration of 3 mg/kg peroral dose of compound once in a day; assay type: functional; details: route oral
[34] = test system: Mus musculus; assay: In vivo blood glucose area under curve after oral glucose tolerance test in male db/db mice at 1 mg/kg peroral dose of compound once in a day; assay type: ADME, organism-based; set-up: dose 1 mg/kg, route oral
[35] = test system: Mus musculus; assay: In vivo % reduction of blood glucose area under curve after oral glucose tolerance test in male db/db mice at 0.33 mg/kg peroral dose of compound thrice a day; assay type: ADME, organism-based; set-up: dose 0.33 mg/kg, route oral
[36] = test system: Mus musculus; assay: In vivo blood glucose area under curve after oral glucose tolerance test in male db/db mice at 3 mg/kg peroral dose of compound once in a day; assay type: ADME, organism-based; set-up: dose 3 mg/kg, route oral
[37] = test system: Mus musculus; assay: In vivo blood glucose area under curve after oral glucose tolerance test in male db/db mice at 1 mg/kg peroral dose of compound thrice a day; assay type: ADME, organism-based; set-up: dose 1 mg/kg, route oral
[38] = test system: Mus musculus; assay: In vivo % reduction of blood glucose level in male db/db mice after administration of 1 mg/kg peroral dose of compound once in a day; assay type: functional; details: route oral
[39] = test system: Mus musculus; assay: In vivo % reduction of blood glucose level in male db/db mice after administration of 3 mg/kg peroral dose of compound once in a day; assay type: functional; details: route oral
[40] = organism: Mus musculus; assay: Nonfasting blood glucose after 7 days treatment in male db/db mice; assay type: functional; details: 168 h

In the case of `CCO[C@@H](Cc1ccc(OCCN2c3ccccc3Oc3ccccc32)cc1)C(=O)O` [RAGAGLITAZAR], the pEC50 [1] was 5.49 and the pEC50 [2] was 6.24.

In the case of `CCO[C@@H](Cc1ccc(OCCn2c3ccccc3c3ccccc32)cc1)C(=O)O`, the ED50 [3] was 0.06 mg/kg, the Max reduction [4] was 58% and 55% and the ED50 [5] was 0.27 mg/kg. For the same compound, the CL/F [6] was 0.75 mL/min/kg, the Max reduction [7] was 52% and the “AUC ED50” value [8] was 0.4 mg/kg. The pEC50 [1] was 6.44, the Cmax [9] was 4430 ng/mL and the ED50 [10] was 0.34 mg/kg. It also gave a Reduction [11] of 56%, a Reduction [12] of 50% and a Vd [13] of 0.73 L/kg. For the same compound, the AUC ([14]; plasma, read-out: AUC (converted)) was 144000 ng·h/mL, the pEC50 [2] was 6.77 and the ED50 [15] was 0.52 mg/kg. The Max reduction [16] was 85%, the bioavailability [17] was greater than 100% and the ED50 [18] was 0.34 mg/kg. The half-life [19] was 22.2 h.

Work on `CCO[C@@H](Cc1ccc(OCCn2c3ccccc3c3cc(Br)ccc32)cc1)C(=O)O` yielded a pEC50 [1] of 5.62 and a pEC50 [2] of 6.48.

Compound `CCOC(Cc1ccc(OCCN2c3ccccc3CCc3ccccc32)cc1)C(=O)O` (stereo not drawn) has a pEC50 [2] of 6.12.

For `CN(CCOc1ccc(CC2SC(=O)NC2=O)cc1)c1ccccn1` (stereo not drawn) [ROSIGLITAZONE], the Max reduction [4] was 35% and 16%, the Reduction [20] was 24% and the AUC glu reduction [21] was 28%. The CL/F [6] was 2.1 mL/min/kg, the BG [22] was 11.35 mM and the Max reduction [7] was 58%. The “AUC glu reduction(mM x min)” value [23] was 51%, the ED50 [24] was 0.07 mg/kg and the “AUC ED50” value [8] was 0.77 mg/kg. It also gave an ED50 [25] of 0.14 mg/kg, an AUC glu reduction [26] of 14% and a Reduction [27] of 11%. For the same compound, the BG reduction [28] was 39%, the Cmax ([9]; rat) was 4420 ng/mL and the AUC glu [29] was 2398 mM·min. For the same compound, the BG reduction [30] was 47%, the BG [31] was 13.06 mM and the BG [32] was 16.08 mM. The BG [33] was 11.72 mM, the AUC ([14]; in vivo) was 14600 ng·h/mL and the AUC glu [34] was 2551 mM·min. It also gave a Max reduction [16] of 43%, an AUC glu reduction [35] of 18% and a bioavailability [17] of 83%. For the same compound, the AUC glu [36] was 2141 mM·min, the AUC glu [37] was 1423 mM·min and the BG reduction [38] was 25%. The BG reduction [39] was 45% and the ED50 [40] was 0.87 mg/kg.

Compound `CC(C)(Oc1ccc(CCNC(=O)c2ccc(Cl)cc2)cc1)C(=O)O` [BEZAFIBRATE] has an ED50 [3] of 16.5 mg/kg, a Reduction [11] of 63% and a Reduction [12] of 74%. The pEC50 [2] was 4.13 and the ED50 [18] was 16.7 mg/kg.
